# Data published in patent US10689381B2 (priority 2017, dated 2020).
# pIC50: −log10 of the molar value. Read-outs that look alike come from different tables or passages of the source.
# How the values were obtained:
# [1] = system: HCT116; assay: cells; type: cell-based, human; details: for pIC50: read-out: IC50 HCT116
# Summary of the method: (§1)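 Compound exposure ran 72 h at six concentrations (0–1000 nM or 0–10000 nM, duplicate) on cells plated at 30,000 cells/mL in 10% FBS DMEM. A closing 37 °C incubation took 15 min (HCT116) or 5 min (L1210).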
# [2] = system: Tubulin
# Description: Control studies were performed with BODIPY-VBL in the absence of a competitive ligand (control 1, maximum FI enhancement) and in the absence of tubulin (control 2, no FI enhancement). Percent (%) BODIPY-VBL displacement was calculated by the formula: (control 1 FI−experiment FI)/(Control 1 FI−Control 2 FI)×100%. Reported values are the average of 5 measurements±SD.
# [3] = system: L1210; assay: cells; type: cell-based, mouse
# Summary of the method: as §1
# [4] = system: A549; assay: cells; type: cell-based, human
# Source text: (§2) 2001, 98:11737; Kavallaris et al., Brit. J. Cancer. 1999, 80:1020; and Kavallaris et al., J. Clin. Invest. 1997, 100:1282]. As a result, the comparison of cell growth inhibition of candidate drugs against A549 vs A549-T24 has been used to characterize potential resistance due to increased expression of class III β-tubulin [Goncalves et al., Proc. Natl. Acad. Sci. USA. 2001, 98:11737; Kavallaris et al., Brit. J. Cancer. 1999, 80:1020; and Kavallaris et al., J. Clin. Invest. 1997, 100:1282].
# [5] = system: A549-T24; assay: cells; type: cell-based, human
# Source text: as §2
# [6] = system: HCT116/VM46; assay: cells; type: cell-based, human; details: for pIC50: read-out: IC50 HCT116/VM46
# Description: Compounds were tested for their cell growth inhibition of L1210 (ATCC no. CCL-219, mouse lymphocytic leukemia), HCT116 (ATCC no. CCL-247, human colorectal carcinoma), and HCT116/VM46 (a vinblastine-resistant strain of HCT116) cells in culture. A population of cells (>1×10^6 cells/mL as determined with a hemocytometer) was diluted with Dulbecco's Modified Eagle Medium (DMEM, Gibco) containing 10% fetal bovine serum (FBS, Gibco) to give a final concentration of 30,000 cells/mL. To each well of a 96-well plate (Corning® Costar®) was added 100 μL of the cell media solution with a multichannel pipet. The cultures were incubated at 37° C. in an atmosphere of 5% CO2 and 95% humidified air for 24 hours.
# The test compounds were then added to the plate as follows: test compounds were diluted in DMSO to a concentration of 1 mM. 10-Fold serial dilutions in DMSO were next performed on a separate 96-well plate. Fresh culture media (100 μL) was added to each well of cells resulting in 200 μL of medium per well followed by 2 μL of each test agent. Compounds were tested in duplicate (n=2-8 times) at six concentrations between 0-1000 nM or 0-10000 nM. Following the addition of compound, cultures were incubated for an additional 72 hours.
# The plates were incubated at 37° C. for 5 minutes (L1210) or 15 min (HCT116 and HCT116/VM46). After the given incubation time, 50 μL of 0.1 N NaOH was added to each well and the absorption at 405 nm was determined using a 96 well plate reader. […]
# [7] = table b183, value in parentheses
smiles,measurement,setting,value
CC[C@]1(NC(=O)c2ccc(N(C)C)cc2)C[C@H]2CN(CCc3c([nH]c4ccccc34)[C@@](C(=O)OC)(c3cc4c(cc3OC)N(C)[C@H]3[C@@](O)(C(=O)OC)[C@H](OC(C)=O)[C@]5(CC)C=CCN6CC[C@]43[C@@H]65)C2)C1 [Compound 64],pIC50,[1]; Table 2,9.74
same,percent (%) displacement of tubulin-bound BODIPY-vinblastine,"[2]; FIG. 2, competitive ligand 18 μM",88±5%
same,pIC50,[3]; Table 2,9.74
CCC1(NC(=O)c2ccc3c(c2)CCCC3)CC2CN(CCc3c([nH]c4ccccc34)C(C(=O)OC)(c3cc4c(cc3OC)N(C)C3C(O)(C(=O)OC)C(OC(C)=O)C5(CC)C=CCN6CCC43C65)C2)C1 (stereo not drawn) [Compound 121],pIC50,[4]; read-out: IC50 A549,8.12
same,pIC50,[5],8.19
same,pIC50,[1]; Table 4,8.31
same,IC50,"[1]; Table 9, read-out: IC50 (nM, HCT116)",4.9 nM
same,IC50,"[1]; Table 10, read-out: IC50 (nM), HCT116",4.9 nM
same,pIC50,[1],8.31
same,potency relative to vinblastine (more potent),[1]; vinblastine-sensitive cell lines,about 2 fold
same,% displacement,"[2]; Table 9, displacement of tubulin bound BODIPY-vinblastine",63 ± 5%
same,relative tubulin binding affinity vs vinblastine,"[2]; in words, b167",essentially indistinguishable from or perhaps slightly better than that of vinblastine
same,pIC50,[3],8.52
same,pIC50,[3]; Table 4,8.48
CCC1(NC(=O)c2cn(C)cn2)CC2CN(CCc3c([nH]c4ccccc34)C(C(=O)OC)(c3cc4c(cc3OC)N(C)C3C(O)(C(=O)OC)C(OC(C)=O)C5(CC)C=CCN6CCC43C65)C2)C1 (stereo not drawn) [Compound 142],pIC50,[6]; Table 5,< 6.00
same,pIC50,[1]; Table 5,7.30
same,pIC50,[3]; Table 5,7.10
CCC1(NC(=O)C2CCNCC2)CC2CN(CCc3c([nH]c4ccccc34)C(C(=O)OC)(c3cc4c(cc3OC)N(C)C3C(O)(C(=O)OC)C(OC(C)=O)C5(CC)C=CCN6CCC43C65)C2)C1 (stereo not drawn) [Compound 146],pIC50,[6]; Table 5,< 5.00
same,pIC50,[1]; Table 5,< 5.00
same,pIC50,[3]; Table 5,5.38
CC[C@]1(NS(=O)(=O)c2ccc3ccccc3c2)C[C@H]2CN(CCc3c([nH]c4ccccc34)[C@@](C(=O)OC)(c3cc4c(cc3OC)N(C)[C@H]3[C@@](O)(C(=O)OC)[C@H](OC(C)=O)[C@]5(CC)C=CCN6CC[C@]43[C@@H]65)C2)C1 [Compound 185],pIC50,"[1]; Table 7, C20′ sulfonamides",7.22
same,pIC50,"[3]; Table 7, C20′ sulfonamides",7.30
CCC1(NS(=O)(=O)c2cccc3c(N(C)C)cccc23)CC2CN(CCc3c([nH]c4ccccc34)C(C(=O)OC)(c3cc4c(cc3OC)N(C)C3C(O)(C(=O)OC)C(OC(C)=O)C5(CC)C=CCN6CCC43C65)C2)C1 (stereo not drawn) [Compound 186],pIC50,"[1]; Table 7, C20′ sulfonamides",7.52
same,pIC50,"[3]; Table 7, C20′ sulfonamides",7.52
CC[C@]1(NC(=O)c2ccc(OC(F)(F)F)cc2)C[C@H]2CN(CCc3c([nH]c4ccc(F)cc34)[C@@](C(=O)OC)(c3cc4c(cc3OC)N(C)[C@H]3[C@@](O)(C(=O)OC)[C@H](OC(C)=O)[C@]5(CC)C=CCN6CC[C@]43[C@@H]65)C2)C1 [Compound 188],pIC50,"[1]; Table 8, 10′-F compounds",9.15
same,pIC50,"[3]; Table 8, 10′-F compounds",9.22
CC[C@]1(NC(=O)c2ccc3c(c2)CCCC3)C[C@H]2CN(CCc3c([nH]c4ccc(F)cc34)[C@@](C(=O)OC)(c3cc4c(cc3OC)N(C)[C@H]3[C@@](O)(C(=O)OC)[C@H](OC(C)=O)[C@]5(CC)C=CCN6CC[C@]43[C@@H]65)C2)C1 [Compound 189],pIC50,"[1]; Table 8, 10′-F compounds",8.21
same,pIC50,"[3]; Table 8, 10′-F compounds",8.30
"CC(=O)O[C@H]1C(=O)[C@@]2(C)[C@H]([C@H](OC(=O)c3ccccc3)[C@]3(O)C[C@H](OC(=O)[C@H](O)[C@@H](NC(=O)c4ccccc4)c4ccccc4)C(C)=C1C3(C)C)[C@]1(OC(C)=O)CO[C@@H]1C[C@@H]2O [Taxol, reference compound]",pIC50,"[4]; Homo sapiens, A549, read-out: IC50 A549",8.15
same,pIC50,"[4]; Homo sapiens, A549, read-out: IC50 wild type A549",8.15
same,loss in potency A549-T24 relative to wild type A549,[5],10 fold
same,pIC50,[5]; Homo sapiens,7.15
same,Measured fold resistant vs wt A549,[5]; [7],10
same,pIC50,"[6]; Homo sapiens, HCT-116/VM46, table b183",< 6.70
same,Measured fold resistant vs wt HCT116,[6]; [7],> 50
same,pIC50,"[1]; Homo sapiens, HCT-116, table b183",8.39
